Laboratory results reported in publication PMC8508980, “Design, Synthesis and Anticancer Profile of New 4-(1H-benzo[d]imidazol-1-yl)pyrimidin-2-amine-Linked Sulfonamide Derivatives with V600EBRAF Inhibitory Effect” (International Journal of Molecular Sciences, 2021).

Legend:
BRAF (wild-type) = biological target: T1, BRAF (wild-type) (Homo sapiens, UniProt P15056); assay: Reaction Biology kinase HotSpot enzyme assay; assay type: biochemical; details: 1 µM ATP; mean ± S.D. of two separate experiments
T1 construct: purchased Reaction Biology Corp. (Kinase HotSpot service)
Protocol: The enzymatic assays were performed in Reaction Biology Corp. using the standard protocol at 1 µM ATP and threefold dilution factor (detailed procedure is found in the Supplementary Information page 52 s).
Reaction Biology Corp. Kinase HotSpotTM service http://www.reactionbiology.com was used for screening of compounds IC50 Proﬁler Express for IC50 measurement. Assay protocol: In a ﬁnal reaction volume of 25 μL, kinase (5–10 mU) is incubated with 25 mM Tris pH 7.5, 0.02 mM EGTA, 0.66 mg/mL myelin basic protein, 10 mM magnesium acetate and [γ33P-ATP] (speciﬁc activity approx. 500 cpm/pmol, concentration as required). The reaction is initiated by the addition of the Mg-ATP mix. After incubation for 40 min at room temperature, the reaction is stopped by the addition of 5 μL of a 3% phosphoric acid solution. 10 μL of the reaction is then spotted onto a P30 ﬁltermat, and washed three times for 5 min in 75 mM phosphoric acid and once in methanol prior to drying and scintillation counting.

NCI-H522 = assay: NCI 60 cell line screen; assay type: cell-based, human; details: for activity at 10 µM: Homo sapiens, NCI-H522, Non-Small Cell Lung Cancer, read-out: Percent growth
In short: (§1)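 Cells grown in RPMI 1640 with 5% FBS were plated 24 h before dosing, then exposed for 48 h at 37 °C to five drug concentrations (maximum 10 µM). Adherent cells were TCA-fixed, suspension cells fixed with 80% TCA. SRB absorbance at 515 nm, relative to time-zero and control plates, gave percent growth and TGI.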

KM12 = assay: NCI 60 cell line screen; assay type: cell-based, human; details: for activity at 10 µM: Homo sapiens, KM12, Colon Cancer, read-out: Percent growth
In short: (§2)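 Growth inhibition is expressed as percent growth versus time-zero and vehicle controls, from SRB absorbance at 515 nm. Compounds span five concentrations (max 10 µM) for 48 h in RPMI 1640 with 5% serum. TGI corresponds to Ti = Tz.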

MOLT-4 = assay: NCI 60 cell line screen; assay type: cell-based, human; details: for activity at 10 µM: Homo sapiens, MOLT-4, Leukemia, read-out: Percent growth
In short: as §2

SR = assay: NCI 60 cell line screen; assay type: cell-based, human; details: for activity at 10 µM: Homo sapiens, Leukemia, read-out: Percent growth
In short: as §2

OVCAR-4 = assay: NCI 60 cell line screen; assay type: cell-based, human; details: for activity at 10 µM: Homo sapiens, OVCAR-4, Ovarian Cancer, read-out: Percent growth
In short: as §2

SNB-75 = assay: NCI 60 cell line screen; assay type: cell-based, human; details: Homo sapiens; SNB-75, CNS-Cancer; read-out: Percent growth
In short: as §1

EKVX = assay: NCI 60 cell line screen; assay type: cell-based, human; details: for activity at 10 µM: Homo sapiens, Non-Small Cell Lung Cancer, read-out: Percent growth
In short: as §1

NCI-H23 = assay: NCI 60 cell line screen; assay type: cell-based, human; details: Homo sapiens; NCI-H23, Non-Small Cell Lung Cancer; read-out: Percent growth
In short: as §1

NCI/ADR-RES = assay: NCI 60 cell line screen; assay type: cell-based, human; details: Homo sapiens, Ovarian Cancer, read-out: Percent growth
In short: as §1

UO-31 = assay: NCI 60 cell line screen; assay type: cell-based, human; details: for activity at 10 µM: Homo sapiens, UO-31, Renal Cancer, read-out: Percent growth
In short: as §1

MDA-MB-468 = assay: NCI 60 cell line screen; assay type: cell-based, human; details: Homo sapiens; MDA-MB-468, Breast Cancer; read-out: Percent growth
In short: as §2

T-47D = assay: NCI 60 cell line screen; assay type: cell-based, human; details: for activity at 10 µM: Homo sapiens, T47D, Breast Cancer, read-out: Percent growth; for percent inhibition: NCI-60 heat map analysis
In short: as §2

NCI-H226 = assay: NCI 60 cell line screen; assay type: cell-based, human; details: for activity at 10 µM: Homo sapiens, NCI-H226, Non-Small Cell Lung Cancer, read-out: Percent growth; for percent inhibition: NCI-H226, NCI-60 heat map analysis
In short: as §2

HCT-15 = assay: NCI 60 cell line screen; assay type: cell-based, human; details: for activity at 10 µM: Homo sapiens, HCT-15, Colon Cancer, read-out: Percent growth
In short: as §1

T1 sequence (P15056 whole entry): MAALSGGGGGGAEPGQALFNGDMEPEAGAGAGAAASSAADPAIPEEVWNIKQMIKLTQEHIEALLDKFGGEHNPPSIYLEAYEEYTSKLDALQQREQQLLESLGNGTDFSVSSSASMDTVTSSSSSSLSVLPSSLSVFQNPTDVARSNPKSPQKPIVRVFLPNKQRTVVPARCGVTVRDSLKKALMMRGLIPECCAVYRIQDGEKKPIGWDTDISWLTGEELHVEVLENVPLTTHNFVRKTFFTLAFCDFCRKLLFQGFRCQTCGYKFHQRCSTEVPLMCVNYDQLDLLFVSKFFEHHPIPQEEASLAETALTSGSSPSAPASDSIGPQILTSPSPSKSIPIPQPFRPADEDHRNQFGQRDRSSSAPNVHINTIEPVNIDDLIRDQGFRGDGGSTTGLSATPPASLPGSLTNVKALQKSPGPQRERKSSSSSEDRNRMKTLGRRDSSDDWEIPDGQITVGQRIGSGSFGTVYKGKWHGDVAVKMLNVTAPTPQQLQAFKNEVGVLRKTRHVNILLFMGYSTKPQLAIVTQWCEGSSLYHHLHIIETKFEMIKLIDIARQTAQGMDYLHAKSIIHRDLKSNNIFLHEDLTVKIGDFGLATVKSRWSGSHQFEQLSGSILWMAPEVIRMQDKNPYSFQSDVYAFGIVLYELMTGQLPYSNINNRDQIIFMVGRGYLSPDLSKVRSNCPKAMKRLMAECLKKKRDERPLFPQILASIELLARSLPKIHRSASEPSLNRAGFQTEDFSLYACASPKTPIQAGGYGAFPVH

SMILES	IC50 (BRAF (wild-type)) [nM]	activity at 10 µM (NCI-H522) [%]	activity at 10 µM (KM12) [%]	activity at 10 µM (MOLT-4) [%]	activity at 10 µM (SR) [%]	activity at 10 µM (OVCAR-4) [%]	activity at 10 µM (SNB-75) [%]	activity at 10 µM (EKVX) [%]	activity at 10 µM (NCI-H23) [%]	activity at 10 µM (NCI/ADR-RES) [%]	activity at 10 µM (UO-31) [%]	activity at 10 µM (MDA-MB-468) [%]	activity at 10 µM (T-47D) [%]	percent inhibition (T-47D) [%]	activity at 10 µM (NCI-H226) [%]	activity at 10 µM (HCT-15) [%]	other results
O=S(=O)(NCCCNc1nccc(-n2cnc3ccccc32)n1)c1ccccc1 [12h, N-(3-((4-(1H-benzo [d]imidazol-1-yl)pyrimidin-2-yl)amino)propyl)benzenesulfonamide]	2320 ± 110	82.7	71	77.2	80	74.5	89.7	88.9	91.8	86.2	75.3	68.8	45.8	55	81	88	–
O=S(=O)(NCCCNc1nccc(-n2cnc3ccccc32)n1)c1ccc(F)cc1 [12i, N-(3-((4-(1H-benzo [d]imidazol-1-yl)pyrimidin-2-yl)amino)propyl)-4-fluorobenzenesulfonamide]	1330 ± 81	68.5	48.9	33.2	36.8	44.2	82.5	61.2	70.4	64.3	59.3	50.2	25.5	75	64.1	82.8	percent inhibition (NCI-H522; NCI-H522, NCI-60 heat map analysis): around 30%; percent inhibition (KM12; KM12, NCI-60 heat map analysis): around 50%; percent inhibition (OVCAR-4; OVCAR-4, NCI-60 heat map analysis): 56%; percent inhibition (EKVX; NCI-60 heat map analysis): around 30%; percent inhibition (NCI-H226): around 30%
O=S(=O)(NCCCNc1nccc(-n2cnc3ccccc32)n1)c1ccc(Cl)cc1 [12j, N-(3-((4-(1H-benzo [d]imidazol-1-yl)pyrimidin-2-yl)amino)propyl)-4-chloro benzenesulfonamide]	1130 ± 99	82.8	92	82.3	81.5	83	91.7	91	97.1	98.2	87.2	93.8	65.3	–	83.2	93.1	–
O=S(=O)(NCCCNc1nccc(-n2cnc3ccccc32)n1)c1ccc(Br)cc1 [12k, N-(3-((4-(1H-benzo [d]imidazol-1-yl)pyrimidin-2-yl)amino)propyl)-4-bromo benzenesulfonamide]	1530 ± 110	75.5	68.3	64.9	70.8	72.1	86.1	81.5	92.8	88.9	74.3	70.7	45.3	55	80.2	83.2	percent inhibition (SR; NCI-60 heat map analysis): 30%
O=S(=O)(NCCCNc1nccc(-n2cnc3ccccc32)n1)c1ccc(C(F)(F)F)cc1 [12l, N-(3-((4-(1H-benzo [d]imidazol-1-yl)pyrimidin-2-yl)amino)propyl)-4-(trifluoromethyl) benzenesulfonamide]	940 ± 65	66.9	51.7	38.4	58	53	65.2	58.1	82.5	55.8	54.4	52.7	16.8	84	57.6	53.8	percent inhibition (UO-31; UO-31, NCI-60 heat map analysis): 46%; percent inhibition (NCI-H226): around 40%; percent inhibition (HCT-15; HCT-15, NCI-60 heat map analysis): more than 40%
COc1ccc(S(=O)(=O)NCCCNc2nccc(-n3cnc4ccccc43)n2)cc1 [12m, N-(3-((4-(1H-benzo [d]imidazol-1-yl)pyrimidin-2-yl)amino)propyl)-4-methoxy benzenesulfonamide]	1460 ± 86	81.1	84.1	77	77.6	77.4	88.2	84.4	91.9	105	67.2	77.2	66.3	–	73.2	92.3	–
O=S(=O)(NCCCNc1nccc(-n2cnc3ccccc32)n1)c1cccc2ccccc12 [12n, N-(3-((4-(1H-benzo [d]imidazol-1-yl)pyrimidin-2-yl)amino)propyl)naphthalene-1-sulfonamide]	3540 ± 175	70	79.8	67	75.4	66.7	87.2	75.1	91.3	81.1	60.7	76.2	44.7	56	77.8	81.8	percent inhibition (MOLT-4; MOLT-4, NCI-60 heat map analysis): around 30%
